Reference: PMC4171110, “BdcA, a Protein Important for Escherichia coli Biofilm Dispersal, Is a Short-Chain Dehydrogenase/Reductase that Binds Specifically to NADPH” (PLoS ONE, 2014)

T1: BdcA (Escherichia coli, UniProt P39333)
T1 construct: full-length; N-terminal Thio6-His6 tag removed with TEV protease; expressed in E. coli BL21-Gold (DE3)
T1 sequence (P39333 1-237): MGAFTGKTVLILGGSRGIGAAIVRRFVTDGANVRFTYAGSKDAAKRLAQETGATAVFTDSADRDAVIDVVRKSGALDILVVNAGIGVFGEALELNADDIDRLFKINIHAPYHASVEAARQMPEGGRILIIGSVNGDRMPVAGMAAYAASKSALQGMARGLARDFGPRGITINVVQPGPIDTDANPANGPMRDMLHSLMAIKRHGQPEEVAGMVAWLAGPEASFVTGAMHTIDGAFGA

B1: BdcA (enzyme, E. coli, UniProt P39333 1-237, looked up)
chain: MGAFTGKTVLILGGSRGIGAAIVRRFVTDGANVRFTYAGSKDAAKRLAQETGATAVFTDSADRDAVIDVVRKSGALDILVVNAGIGVFGEALELNADDIDRLFKINIHAPYHASVEAARQMPEGGRILIIGSVNGDRMPVAGMAAYAASKSALQGMARGLARDFGPRGITINVVQPGPIDTDANPANGPMRDMLHSLMAIKRHGQPEEVAGMVAWLAGPEASFVTGAMHTIDGAFGA
notes: BdcA (YjgI), short-chain dehydrogenase/reductase of E. coli, full-length bdcA gene in the RP1B vector; monomer MW 24.9 kDa as printed; Tag removed with TEV protease; Homodimer in the crystal and in solution; also called YjgI; BcdA; source: E. coli BL21-Gold (DE3), purified (HisTrap, TEV cleavage, Ni-NTA, SEC); not shown: Thio6-His6, N-terminal, cleaved

Key:
[1] = target: T1, BdcA; experiment: differential scanning fluorimetry (SYPRO Orange); format: binding; details: 20 mM HEPES pH 7.5; 8 µM protein, 160 µM ligand
Excerpt: differential scanning fluorimetry (SYPRO Orange) on BdcA

[2] = target: T1, BdcA; experiment: isothermal titration calorimetry; format: binding
Excerpt: isothermal titration calorimetry on BdcA

[3] = target: the molecule itself; experiment: SEC; Superdex 75 26/60, 20 mM Tris pH 7.5, 100 mM NaCl, 0.5 mM TCEP; elution volume compared with MW standards (158, 44, 17 kDa)

Molecule | ΔTm (°C) [1] | Kd [2] | stoichiometry N [3]
NC(=O)C1=CN([C@@H]2O[C@H](COP(=O)(O)OP(=O)(O)OC[C@H]3O[C@@H](n4cnc5c(N)ncnc54)[C@H](OP(=O)(O)O)[C@@H]3O)[C@@H](O)[C@H]2O)C=CC1 [NADPH] | 3.1 °C | 25.9 ± 4.1 µM | –
NC(=O)c1ccc[n+]([C@@H]2O[C@H](COP(=O)(O)OP(=O)(O)OC[C@H]3O[C@@H](n4cnc5c(N)ncnc54)[C@H](OP(=O)(O)O)[C@@H]3O)[C@@H](O)[C@H]2O)c1 [NADP] | 1.0 °C | – | –
B1 | – | – | 2
